Reference: the CheMixHub viscosity set
Where “and” joins values, the source holds several entries; their conditions need not be identical. Equal entries are not always repeated.

C=CC(C)O (centres undefined)
101.32 kPa
Conditions | viscosity [mPa·s]
308.15 K | 1.294
313.15 K | 1.144
318.15 K | 1.015
323.15 K | 0.9032

CCCCCCN
viscosity
Conditions | 303.15 K | 308.15 K | 313.15 K
101 kPa | 0.6979 mPa·s and 0.729 mPa·s and 0.7123 mPa·s | 0.6 mPa·s and 0.6 mPa·s | 0.6134 mPa·s
101.33 kPa | 0.7123 mPa·s | – | 0.6134 mPa·s

CCCCCCn1cc[n+](C)c1.F[B-](F)(F)F
101 kPa
Conditions | viscosity
298.15 K | 171.8 mPa·s and 211.2 mPa·s
299.15 K | 198.1 mPa·s and 197.3 mPa·s
301.15 K | 177.2 mPa·s and 175.8 mPa·s
302.15 K | 167.2 mPa·s and 165.9 mPa·s
304.15 K | 148.4 mPa·s and 148.6 mPa·s
305.15 K | 141.2 mPa·s and 140.7 mPa·s
307.15 K | 127.5 mPa·s and 126.7 mPa·s
308.15 K | 145.4 mPa·s and 120.7 mPa·s and 120 mPa·s
313.15 K | 113.6 mPa·s and 55 mPa·s
318.15 K | 90.3 mPa·s
323.15 K | 72.8 mPa·s and 36 mPa·s

CCCO
Conditions | viscosity
293.15 K, 101.33 kPa | 2.185 mPa·s and 2.327 mPa·s
295.15 K, 101 kPa | 2.12 mPa·s
298.15 K, 100 kPa | 1.91 mPa·s
298.15 K, 101.31 kPa | 2.004 mPa·s
298.15 K, 101.33 kPa | 1.743 mPa·s
303 K, 101 kPa | 1.634 mPa·s
303 K, 101.33 kPa | 1.769 mPa·s
303.15 K, 101 kPa | 1.777 mPa·s and 1.591 mPa·s and 1.768 mPa·s
303.15 K, 101.3 kPa | 1.6 mPa·s and 1.784 mPa·s
303.16 K, 101 kPa | 1.92 mPa·s
308 K, 101.3 kPa | 1.461 mPa·s
308.15 K, 101.3 kPa | 1.488 mPa·s and 1.4 mPa·s
308.15 K, 101.33 kPa | 1.486 mPa·s and 1.466 mPa·s and 1.376 mPa·s
311 K, 101.3 kPa | 1.43 mPa·s
313 K, 101.3 kPa | 1.317 mPa·s
313.15 K, 101.3 kPa | 1.3 mPa·s
313.15 K, 101.33 kPa | 1.319 mPa·s
318.15 K, 101.3 kPa | 1.1 mPa·s
319 K, 101.3 kPa | 1.197 mPa·s
323 K, 101 kPa | 0.9714 mPa·s
323 K, 101.3 kPa | 1.165 mPa·s
323.15 K, 101 kPa | 1.15 mPa·s
323.15 K, 101.3 kPa | 0.92 mPa·s
323.15 K, 101.33 kPa | 1.136 mPa·s and 1.166 mPa·s

CC[n+]1ccccc1.N#C[N-]C#N
100 kPa
Conditions | viscosity [mPa·s]
293.15 K | 22.1
298.15 K | 18.92
303.15 K | 16.44
308.15 K | 14.31
313.15 K | 12.48
318.15 K | 10.98

CNc1ccccc1
Conditions | viscosity [mPa·s]
298 K, 101 kPa | 1.963
298 K, 101.3 kPa | 1.963
298.15 K, 101 kPa | 2.02
303 K, 101.3 kPa | 1.717
303 K, 101.33 kPa | 1.751
303.15 K, 101 kPa | 1.55
308 K, 101.3 kPa | 1.538
308.15 K, 101.33 kPa | 1.515
313 K, 101.3 kPa | 1.386
318 K, 101.3 kPa | 1.251
323.15 K, 101 kPa | 1.401

CO
Conditions | viscosity
293.15 K, 100 kPa | 0.587 mPa·s and 0.55 mPa·s and 0.58 mPa·s
293.31 K, 101 kPa | 0.589 mPa·s
297.8 K, 101 kPa | 0.5495 mPa·s
298 K, 101.3 kPa | 0.59 mPa·s
298.15 K, 100 kPa | 0.5417 mPa·s
298.15 K, 101.33 kPa | 0.5365 mPa·s and 0.6152 mPa·s and 0.562 mPa·s
299 K, 101 kPa | 0.8138 mPa·s
303 K, 100 kPa | 0.5211 mPa·s and 0.5 mPa·s
303 K, 101.3 kPa | 0.5773 mPa·s
303.15 K, 100 kPa | 0.527 mPa·s
303.15 K, 101.33 kPa | 0.5054 mPa·s and 0.541 mPa·s
303.16 K, 101 kPa | 0.56 mPa·s
303.21 K, 101 kPa | 0.511 mPa·s
308.15 K, 100 kPa | 0.498 mPa·s and 0.491 mPa·s and 0.4987 mPa·s
308.15 K, 101.3 kPa | 0.474 mPa·s
308.56 K, 101 kPa | 0.476 mPa·s
313 K, 100 kPa | 0.4373 mPa·s and 0.42 mPa·s
313 K, 101.3 kPa | 0.455 mPa·s
313.15 K, 100 kPa | 0.471 mPa·s and 0.465 mPa·s
313.15 K, 101.33 kPa | 0.4423 mPa·s and 0.463 mPa·s
318.15 K, 100 kPa | 0.448 mPa·s and 0.442 mPa·s and 0.4456 mPa·s
321.15 K, 101.32 kPa | 0.4101 mPa·s
322.15 K, 101.32 kPa | 0.4068 mPa·s
322.9 K, 101 kPa | 0.3997 mPa·s
323.15 K, 100 kPa | 0.3905 mPa·s and 0.428 mPa·s and 0.421 mPa·s
323.15 K, 101.3 kPa | 0.396 mPa·s
323.15 K, 101.32 kPa | 0.401 mPa·s
323.15 K, 101.33 kPa | 0.3907 mPa·s and 0.406 mPa·s
